According to ChEMBL document CHEMBL1649145, “Interactions between triazoles and amphotericin B in treatment of disseminated murine infection by Fusarium oxysporum” (2009):
Converted amounts (≈) assume the structure as drawn. The source made the active and inactive calls. The calls are words filed in the database; no cut-off is given here.

Experiments:
Fusarium oxysporum [1] = test: Antimicrobial activity against Fusarium oxysporum FMR 5205 by microdilution method; assay type: functional
Fusarium oxysporum [2] = test: Antimicrobial activity against Fusarium oxysporum FMR 10281 by microdilution method; assay type: functional
Fusarium oxysporum [3] = test: Antimicrobial activity against 1X 10^7 CFU Fusarium oxysporum FMR 10281 infected in immunosuppressed-OF1 mouse assessed as prolonged survival of mouse at 60 mg/kg, po administered 1 day post infection measured 20 days post […] infection; assay type: functional, organism-based; parameters: dose 60 mg/kg
Fusarium oxysporum [4] = test: Antimicrobial activity against 1X 10^7 CFU Fusarium oxysporum FMR 10281 infected in immunosuppressed-OF1 mouse assessed as reduction in spleen fungal burden at 3 mg/kg, ip administered 1 day post infection measured on day 6 post dosing; assay type: functional, organism-based; parameters: dose 3 mg/kg
Fusarium oxysporum [5] = test: Antimicrobial activity against 1X 10^7 CFU Fusarium oxysporum FMR 5205 infected in immunosuppressed-OF1 mouse assessed as reduction in spleen fungal burden at 3 mg/kg, ip administered 1 day post infection measured on day 6 post dosing; assay type: functional, organism-based; parameters: dose 3 mg/kg
Fusarium oxysporum [6] = test: Antimicrobial activity against 1X 10^7 CFU Fusarium oxysporum FMR 5205 infected in immunosuppressed-OF1 mouse assessed as reduction in kidney fungal burden at 60 mg/kg, po administered 1 day post infection measured on day 6 post dosing; assay type: functional, organism-based; parameters: dose 60 mg/kg
Fusarium oxysporum [7] = test: Antimicrobial activity against 1X 10^7 CFU Fusarium oxysporum FMR 10281 infected in immunosuppressed-OF1 mouse assessed as prolonged survival of mouse at 100 mg/kg, po administered 1 day post infection measured 20 days post […] infection; assay type: functional, organism-based; parameters: dose 100 mg/kg
Fusarium oxysporum [8] = test: Antimicrobial activity against 1X 10^7 CFU Fusarium oxysporum FMR 5205 infected in immunosuppressed-OF1 mouse assessed as reduction in kidney fungal burden at 100 mg/kg, po administered 1 day post infection measured on day 6 post dosing; assay type: functional, organism-based; parameters: dose 100 mg/kg
Fusarium oxysporum [9] = test: Antimicrobial activity against 1X 10^7 CFU Fusarium oxysporum FMR 10281 infected in immunosuppressed-OF1 mouse assessed as reduction in spleen fungal burden at 100 mg/kg, po administered 1 day post infection measured on day 6 post dosing; assay type: functional, organism-based; parameters: dose 100 mg/kg
Fusarium oxysporum [10] = test: Antimicrobial activity against 1X 10^7 CFU Fusarium oxysporum FMR 5205 infected in immunosuppressed-OF1 mouse assessed as reduction in spleen fungal burden at 100 mg/kg, po administered 1 day post infection measured on day 6 post dosing; assay type: functional, organism-based; parameters: dose 100 mg/kg
Fusarium oxysporum [11] = test: Antimicrobial activity against Fusarium oxysporum FMR 5205 by microdilution method in presence of voriconazole; assay type: functional
Fusarium oxysporum [12] = test: Antimicrobial activity against Fusarium oxysporum FMR 10281 by microdilution method in presence of voriconazole; assay type: functional
Fusarium oxysporum [13] = test: Antimicrobial activity against Fusarium oxysporum FMR 5205 by microdilution method in presence of posaconazole; assay type: functional
Fusarium oxysporum [14] = test: Antimicrobial activity against Fusarium oxysporum FMR 10281 by microdilution method in presence of posaconazole; assay type: functional
Fusarium oxysporum [15] = test: Antimicrobial activity against 1X 10^7 CFU Fusarium oxysporum FMR 10281 infected in immunosuppressed-OF1 mouse assessed as prolonged survival of mouse at 3 mg/kg, ip administered 1 day post infection measured 20 days post […] infection; assay type: functional, organism-based; parameters: dose 3 mg/kg

SMILES | MIC (Fusarium oxysporum [1]) [µg/mL] | MIC (Fusarium oxysporum [2]) [µg/mL] | Activity (Fusarium oxysporum [3]) | Activity (Fusarium oxysporum [4]) | Activity (Fusarium oxysporum [5]) | Activity (Fusarium oxysporum [6]) | Activity (Fusarium oxysporum [7]) | Activity (Fusarium oxysporum [8]) | Activity (Fusarium oxysporum [9]) | Activity (Fusarium oxysporum [10]) | MIC (Fusarium oxysporum [11]) [µg/mL] | MIC (Fusarium oxysporum [12]) [µg/mL] | MIC (Fusarium oxysporum [13]) [µg/mL] | MIC (Fusarium oxysporum [14]) [µg/mL] | Activity (Fusarium oxysporum [15])
C[C@@H](c1ncncc1F)[C@](O)(Cn1cncn1)c1ccc(F)cc1F [VORICONAZOLE] | 4 (≈ 11.5 µM) | 16 (≈ 45.8 µM) | inactive | Active | Active | Active |  |  |  |  |  |  |  |  | 
CC[C@@H]([C@H](C)O)n1ncn(-c2ccc(N3CCN(c4ccc(OC[C@@H]5CO[C@@](Cn6cncn6)(c6ccc(F)cc6F)C5)cc4)CC3)cc2)c1=O [POSACONAZOLE] | 2 (≈ 2.85 µM) | > 16 |  |  |  |  | Active | Active | Active | Active |  |  |  |  | 
C[C@@H]1[C@H](O)[C@@H](C)/C=C/C=C/C=C/C=C/C=C/C=C/C=C/[C@H](O[C@@H]2O[C@H](C)[C@@H](O)[C@H](N)[C@@H]2O)C[C@@H]2O[C@](O)(C[C@@H](O)C[C@@H](O)[C@H](O)CC[C@@H](O)C[C@@H](O)CC(=O)O[C@H]1C)C[C@H](O)[C@H]2C(=O)O [AMPHOTERICIN B] | 2 (≈ 2.16 µM) | 4 (≈ 4.33 µM) |  |  |  |  |  |  |  |  | 2 | 4 | 2 | 4 | inactive
